One block for each compound: values may come before it.
Columns and labels:
[1] = test system: HT-29 cell line transiently transfected with GFP-N-COMMD1; assay: chemosensitivity to 5-FU of transfected HT-29 cells, MTT; format: cell-based, human; details: cells expressing GFP-NCOMMD1 compared to GFP or GFP-COMMD1, 48 hours
Procedure: (A) The HT-29 cell line transiently transfected with constructs described above were seeded in 96-well plates (Costar) at density of 1×10^4 cells/mL in RPMI 1640 (Gibco) supplemented with fetal calf serum (Gibco) After 24 hours, the cytostatic 5-FU was added to the culture medium in a dose range between 0.025 μM and 2500 μM, in 1:10 serial dilutions. […] Finally, the plate reading at an absorbance of 492 nm was carried out. Each point was performed in duplicate, and experiments were carried out at least twice independently. The IC50 values were obtained from the respective curves of cell proliferation.

[2] = test system: HT-29 tumor cells; assay: combination L552 peptide and cytostatic, MTT, CalcuSyn, HT-29; format: cell-based, human
Procedure: (§1) For this assay, HT-29 and H-125 tumor cells were seeded in 96-well plates (Costar) at a density of 1×10^4 cells mL in RPMI 1640 (Gibco) supplemented with fetal calf serum (Gibco). After 24 hours, the peptide was added to the culture medium in a dose range between 9 μM and 300 μM and the cytostatic drug was added in a range dose of 1:10 serial dilution over and below the reported IC50 for each cell line. […] The effect of concomitant treatment cytostatic-peptide was analyzed by the CalcuSyn computer software to study drug combinations (Ting-Chao Chou, 2006, Pharmacological Reviews, 58: 621-681). […] The combination 5-FU+L552 peptide allows a 20 times reduction (RI) of cytostatic in the HT-29 cell line. For the combination cisplatin+L552 peptide, the cytostatic reduction is 5 times in the H-125 cell line. […] This can reduce the adverse effects associated with chemotherapy.

[3] = test system: H-125 tumor cells; assay: combination L552 peptide and cytostatic, MTT, CalcuSyn, H-125; format: cell-based, human
Procedure: as §1

[4] = molecular target: T1, COMMD1 protein (Homo sapiens, UniProt Q8N668); assay: two-hybrid yeast system, L2 peptide-protein interaction; format: binding; design: expressed in transfected cells; host or cells: Saccharomyces cerevisiae Y187 (mated with AH109 carrying pGBKL2-1); details: COMMD1 deletion clones
Procedure: To identify anti-tumor L2 peptide-protein interactions the two-hybrid yeast system was used. For cloning the sequences corresponding to the peptide the oligonucleotides were designed as follows:
corresponding to the L2 peptide sequence: […] For cloning these sequences in the pGBKT7 NcoI-BamHI vector, sequences complementary to these sites were added at the ends of the oligonucleotides. The pGBKL2-1 recombinant plasmid, which carries the L2 peptide sequence was verified by restriction analysis and sequencing. The plasmid was transformed into the AH109 yeast strain by the lithium acetate method and grown in SD-Trp medium. It was verified that it could not be self-activated when grown on SD-Trp-His plates. For the screening of the interactions, a human liver cDNA library transformed into the Y187 strain was used. For the diploid formation and the selection of interactions, 5×10^8 AH109 cells containing the pGBKL2-1 plasmid were grown with 5×10^8 Y187 cells containing the human liver DNA library, for 4 hours, on solid medium YPDA at 30° C. Ten ml of sterile water were added on the surface of the YPDA plates, and the cells were suspended carefully with spatula and transferred to 15 plates of SD-Trp-Leu-His-Ade minimal media and grown at 30° C. for 7 days. The 74 resulting colonies were transferred to liquid SD-Trp-Leu in 96 deep well plates. […]
Target sequence in this assay (Q8N668 6-190): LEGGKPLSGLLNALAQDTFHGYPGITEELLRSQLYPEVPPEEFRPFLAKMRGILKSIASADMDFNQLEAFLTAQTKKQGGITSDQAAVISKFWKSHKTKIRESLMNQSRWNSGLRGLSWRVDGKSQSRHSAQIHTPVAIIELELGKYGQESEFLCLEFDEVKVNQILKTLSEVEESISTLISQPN

[5] = test system: COMMD1 nuclear localization in SW948 cells; assay: COMMD1 sub-cellular (nuclear) localization in SW948 cells, Western blot; format: cell-based, human; details: peptide 50 μM, 5 hours
Procedure: (B) SW948 cells (3×10^6 cells) were incubated for 5 hours at 37° C. and 5% CO2 with the L2 peptide (50 μM). Subsequently, cytosolic and nuclear proteins were obtained as reported (Vancurova et al., 2001, Journal of Biological Chemistry, 276: 19746-19752). The COMMD1 detection was performed by Western blot using an anti-COMMD1 antibody. […] Beta Actin was used as a control for the cytoplasmic fraction and the human ribonucleoprotein (hnRNP) as a control of the nuclear fraction.
In this experiment the objective was to identify a peptide with a higher capacity to accumulate COMMD1 in the nucleus of the cells. SW948 cells (3×10^6 cells) were incubated for 5 hours at 37° C. and 5% CO2 with L2, L551, L552, L553 and L554 peptides (50 μM). Subsequently, isolation of cytosolic and nuclear proteins was performed as described in Example 2. COMMD1 detection was performed by Western blot using an anti-COMMD1 antibody. […] Also, the interaction is related to the facilitation of nuclear accumulation of COMMD1.

[6] = molecular target: T1, COMMD1 protein; assay: pulldown with biotinylated L2 peptide, SW948 total protein extract, Western blot; format: binding; design: Total extract protein from SW948 (cell line from human colon carcinoma); endogenous in cells; host or cells: SW948; details: compared to total protein extract
Procedure: (A) The synthetic L2 peptide (SEQ ID No. 1), synthesized using a solid phase procedure was biotinylated and used as “bait” attached to a streptavidin sepharose resin. Total extract protein from SW948 (cell line from human colon carcinoma) was used as a “prey”. These experiments are known as “pulldown”. The total extract protein was obtained from […] cells using extraction buffer (Triton X-100 0.5% 25 mM HEPES, pH 7.5, 100 mM NaCl, 1 mM EDTA, 10% glycerol, 1 mM dithiothreitol (DTT), and a protease inhibitor). The biotinylated peptide (300 μg) was incubated with 50 μL of streptavidin sepharose resin (GE Healthcare), for 1 hour, and washed with phosphate buffered saline (PBS 1×) plus 1 mM DTT were done. Then, 500 μL of total proteins were incubated with 50 μL resin containing the biotinylated peptide, at room temperature for 5 hours. Subsequently, the resin is washed extensively with PBS 1× and 1 mM DTT. Proteins remaining attached to the resin are those that interact with the peptide, and are suspended in 25 μL of electrophoresis buffer (62.5 mM Tris HCl, pH 6.9, 0.1 M DTT, 20% sodium dodecyl-sulphate (SDS), 10% glycerol and 0.01% bromophenol blue). To detect the protein of interest a polyacrylamide gel electrophoresis (7.5%) was performed, followed by immunodetection by Western blot. To detect the COMMD1 protein, a monoclonal antibody against COMMD1 protein (Sigma, clone 2A12) was used. […]
Target sequence in this assay (Q8N668 whole entry): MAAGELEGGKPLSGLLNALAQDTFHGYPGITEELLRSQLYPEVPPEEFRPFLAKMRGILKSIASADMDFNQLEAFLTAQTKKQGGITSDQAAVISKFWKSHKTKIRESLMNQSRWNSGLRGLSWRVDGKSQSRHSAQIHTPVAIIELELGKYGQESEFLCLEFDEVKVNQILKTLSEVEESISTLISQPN

- IC50 of 5-FU [1]: reduction of the IC50
Compound: O=c1[nH]cc(F)c(=O)[nH]1 [Peptide 5-FU, 5-fluorouracil]
- Drug 5-FU ([2]; HT-29, at Af 89%): 5000 µM
- RI (5-FU) ([2]; HT-29, reduction index of the drug in combination with L552): 20

Compound: N.N.[Cl][Pt][Cl] [cisplatin]
- Drug cisplatin ([3]; H-125, at Af 94%): 273 µM
- RI (cisplatin) ([3]; H-125, reduction index of the drug in combination with L552): 5

- COMMD1 pulled down by the peptide [6]: concentrates the COMMD1 protein
Compound: HARIKPTFRRLKWKYKGKFW [Peptide L2, Peptide previously described in application WO 07/095 867]
- interaction with COMMD1 (region responsible) [4]: specifically binds the region between amino acids 110-190
- COMMD1 nuclear localization / accumulation [5]: COMMD1 nuclear localization
